Reference: the supplement of paper PMC10307832

Tests used:
Assay in all cases: relative viability (nuclei count vs DMSO), 5 days (fraction); higher = more cells survive
[1] = compound: Cc1cc([C@@H](C)Nc2ccccc2C(=O)O)c2nc(N3CCOCC3)cc(=O)n2c1 [AZD6482] + Nc1nc2[nH]cc(CCc3ccc(C(=O)N[C@@H](CCC(=O)O)C(=O)O)cc3)c2c(=O)[nH]1 [Pemetrexed] (partner 0.2 µM)
Outline: (§1)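 Five library-drug doses in √10 steps were combined with a fixed anchor-drug dose, or a single drug was given alone, by pin tool to lung cancer cell lines in 1536-well plates the day after seeding. Nuclei were stained and counted after 5 days. Relative viability is the nuclei count in treated wells over that in vehicle wells, taken as the median of duplicate plates.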

[2] = compound: COc1cc2nc(N3CCCN(C)CC3)nc(NC3CCN(Cc4ccccc4)CC3)c2cc1OC + CC(=O)c1c(C)c2cnc(Nc3ccc(N4CCNCC4)cn3)nc2n(C2CCCC2)c1=O [Palbociclib] (partner 0.5 µM)
Outline: as §1

[3] = compound: Cc1cc([C@@H](C)Nc2ccccc2C(=O)O)c2nc(N3CCOCC3)cc(=O)n2c1 [AZD6482] + CS(=O)(=O)N1CCN(Cc2cc3nc(-c4cccc5[nH]ncc45)nc(N4CCOCC4)c3s2)CC1 [Pictilisib] (partner 1 µM)
Outline: as §1

[4] = compound: COc1cc2nc(N3CCCN(C)CC3)nc(NC3CCN(Cc4ccccc4)CC3)c2cc1OC + Cc1nc(NC(=O)N2CCC[C@H]2C(N)=O)sc1-c1ccnc(C(C)(C)C(F)(F)F)c1 [Alpelisib] (partner 2 µM)
Outline: as §1

| Cell Line | relative viability ([1]; first compound 0.08 µM) | relative viability ([1]; first compound 0.253 µM) | relative viability ([1]; first compound 0.8 µM) | relative viability ([1]; first compound 2.53 µM) | relative viability ([1]; first compound 8 µM) | relative viability ([2]; first compound 0.2 µM) | relative viability ([2]; first compound 0.6325 µM) | relative viability ([2]; first compound 2 µM) | relative viability ([2]; first compound 6.325 µM) | relative viability ([3]; first compound 0.08 µM) | relative viability ([3]; first compound 0.253 µM) | relative viability ([3]; first compound 0.8 µM) | relative viability ([3]; first compound 2.53 µM) | relative viability ([3]; first compound 8 µM) | relative viability ([4]; first compound 0.2 µM) | relative viability ([4]; first compound 0.6325 µM) | relative viability ([4]; first compound 2 µM) | relative viability ([4]; first compound 6.325 µM) |
| --- | --- | --- | --- | --- | --- | --- | --- | --- | --- | --- | --- | --- | --- | --- | --- | --- | --- | --- |
| NCI-H3122 | 0.191 | 0.198 | 0.2 | 0.189 | 0.189 | 0.207 | 0.21 | 0.216 | 0.209 | 0.644 | 0.572 | 0.642 | 0.407 | 0.636 | 0.73 | 0.803 | 0.834 | 0.723 |
| NCI-H1975 | 0.257 | 0.28 | 0.31 | 0.303 | 0.308 | 0.567 | 0.603 | 0.826 | 0.586 | 0.249 | 0.275 | 0.307 | 0.274 | 0.258 | 0.718 | 0.597 | 0.727 | 0.616 |
| NCI-H1944 | 0.535 | 0.575 | 0.604 | 0.427 | 0.499 | 0.327 | 0.349 | 0.326 | 0.321 | 0.314 | 0.342 | 0.366 | 0.246 | 0.33 | 0.822 | 0.909 |  | 0.912 |
| LU99A | 0.187 | 0.2 | 0.158 | 0.17 | 0.172 | 0.379 | 0.38 | 0.371 | 0.412 | 0.339 | 0.335 | 0.366 | 0.25 | 0.34 | 0.539 | 0.458 | 0.454 | 0.479 |
| SW 1573 | 0.881 | 0.822 | 0.827 | 0.723 | 0.75 | 0.365 | 0.417 | 0.377 | 0.196 | 0.415 | 0.459 | 0.445 | 0.304 | 0.447 | 0.614 | 0.696 | 0.729 | 0.724 |
| NCI-H2347 | 0.382 | 0.455 | 0.362 | 0.38 | 0.364 | 0.46 | 0.433 | 0.385 | 0.422 |  | 0.75 | 0.559 | 0.393 | 0.421 | 0.929 | 1.02 | 1.03 | 0.831 |
| NCI-H2009 | 0.972 | 1.12 | 1.11 | 0.724 | 1.01 | 0.222 | 0.253 | 0.413 | 0.24 | 0.71 | 0.765 | 0.871 | 0.516 | 0.743 | 1.24 | 1.07 | 1.18 | 1.07 |
| HCC-15 | 0.208 | 0.231 | 0.244 | 0.228 | 0.212 | 0.741 | 0.802 | 0.83 | 0.69 | 0.642 | 0.651 | 0.766 | 0.641 | 0.849 | 0.886 | 0.842 | 0.875 | 0.687 |
| HCC-44 | 0.669 | 0.661 | 0.763 | 0.741 | 0.831 | 0.956 | 0.951 | 0.995 | 0.956 | 0.416 | 0.589 | 0.567 | 0.452 | 0.531 | 0.832 | 0.748 | 0.841 | 0.746 |
| COR-L23 | 0.198 | 0.205 | 0.197 | 0.182 | 0.204 | 0.34 | 0.266 | 0.362 | 0.265 | 0.424 | 0.642 | 0.765 | 0.534 | 0.748 | 0.799 | 0.724 | 0.944 | 0.712 |
| NCI-H1299 |  |  |  |  |  |  |  |  |  | 0.615 | 0.684 | 0.742 | 0.394 | 0.678 | 1.03 | 1.08 | 1.06 | 1.08 |
| NCI-H727 |  |  |  |  |  | 0.617 | 0.656 | 0.571 | 0.632 | 0.357 | 0.302 | 0.356 |  | 0.404 | 0.633 | 0.615 | 0.593 | 0.328 |
| ABC-1 |  |  |  |  |  | 0.718 | 0.682 | 0.754 | 0.6 | 0.789 | 0.623 | 0.773 | 0.686 | 0.736 | 0.955 | 0.988 | 1.18 | 0.92 |
| NCI-H1650 | 0.332 | 0.295 | 0.372 | 0.287 | 0.361 | 0.243 | 0.448 | 0.328 | 0.287 | 0.55 |  | 0.664 | 0.398 | 0.843 |  |  |  |  |
| ChaGo-K-1 | 0.259 | 0.262 | 0.271 | 0.262 | 0.258 | 0.883 | 0.979 | 0.933 | 0.902 | 0.765 |  | 1.15 | 1.01 | 0.977 |  |  |  |  |
| SW 900 | 0.479 | 0.476 | 0.501 | 0.358 | 0.384 | 0.538 | 0.442 | 0.566 | 0.46 |  |  |  |  |  |  |  |  |  |
| NCI-H596 | 0.451 | 0.485 | 0.486 | 0.462 | 0.492 |  |  |  |  | 0.324 | 0.349 | 0.508 | 0.343 | 0.441 | 0.616 | 0.458 | 0.498 | 0.44 |
| NCI-H1563 | 0.666 | 0.676 | 0.642 | 0.605 | 0.698 |  |  |  |  | 0.617 | 0.575 | 0.646 | 0.677 | 0.673 | 0.954 | 0.904 | 0.834 | 0.73 |
| A549 |  |  |  |  |  |  |  |  |  | 0.522 | 0.472 | 0.523 | 0.264 | 0.386 | 0.694 | 0.8 | 0.761 | 0.722 |
| NCI-H2342 | 0.745 | 0.681 | 0.726 | 0.609 | 0.567 | 0.521 | 0.58 | 0.549 | 0.527 |  |  |  |  |  |  |  |  |  |
| NCI-H522 | 0.932 | 0.933 | 1.11 | 0.87 | 0.923 | 0.716 | 1.18 | 0.859 | 0.915 |  |  |  |  |  |  |  |  |  |
| IA-LM |  |  |  |  |  |  |  |  |  | 0.342 | 0.247 | 0.338 |  | 0.366 | 0.688 | 0.823 | 1.02 | 1.01 |
| EBC-1 |  |  |  |  |  |  |  |  |  | 0.314 | 0.295 | 0.209 | 0.197 | 0.292 | 0.82 | 0.798 | 0.787 | 0.697 |
